In patent US7569554B2, “Synergistic treatment of cancer using immunomers in conjunction with therapeutic agents” (Idera Pharmaceuticals, Inc., priority 2003, dated 2009):

How the values were obtained:
[1] = In vitro cytokine induction profiles of IMO compounds (FIG. 16); type: cell-based
CD69+ and CD86+ cells = experiment: Activation of CD69+ and CD86+ cells in peripheral blood; type: in vivo, mouse; conditions: docetaxel 30 mg/kg days 1 and 3, IMO 2 5 mg/kg days 1, 3, 5, 7; FIG. 24C
CT26.CL25 = experiment: Peritoneal disseminated CT26.CL25 tumor, survival; type: in vivo, mouse; conditions: peritoneal administration, 1 mg/kg; FIG. 17C
Procedure: (§1) For peritoneal disseminated tumor model, 3×10^5 CT26.WT or CT26.CL25 cells and 5×10^4 B16.F0 cells were injected i.p to BALB/c or C57BL/6 mice respectively. […] Mice were checked daily for tumor growth and for survival. Each dose group had 6 to 10 mice.

[2] = system: Her-2 overexpressing human breast tumors (BT474); experiment: Example 23 tumor model, Rituxan and/or IMO 2; type: in vivo, mouse; conditions: Rituxan days 5, 7, 9, 11; IMO 2 days 5, 7, 9, 11, 13; FIG. 30
Procedure: Nude mice bearing subcutaneously implanted Her-2 overexpressing human breast tumors (BT474). Tumor bearing mice were treated by intraperitoneal injections of Rituxan on days 5, 7, 9 and 11 and/or IMO 2 on days 5, 7, 9, 11 and 13.

CT26.CL25 tumor cells = experiment: Adoptive transfer of splenocytes, CT26.CL25 challenge; type: in vivo, mouse; conditions: FIG. 21A
Excerpt: (§2) To study adoptive immune cell transfer, BALB/c mice were adoptively i.p. transferred with 5×10^6 of syngeneic splenocytes either from naïve BALB/c mice or from IMO treated long term survivors bearing CT26.WT or CT26.CL25, the mice (5/group) were then cross challenged i.p. with 3×10^5 CT26.WT, CT26.CL25 or 4T1 cells on day 3.

[3] = Total serum IgG1 and IgG2a in B16.F0 tumor bearing C57BL/6 mice; type: in vivo, mouse; conditions: compared with control non-CpG DNA
Procedure: For the analysis of serum antibodies, 96 well plates were incubated at room temperature for 3 hours with β-gal protein (Calbiochem Novabiochem, Pasadena, Calif.) at 2 μg/ml in phosphate buffered saline (PBS). The solid phase was incubated overnight at 4° C. with normal mouse serum (NMS) or antiserum, or β-gal specific monoclonal Ab (Calbiochem Novabiochem, Pasadena, Calif.) followed by an incubation with horseradish peroxidase (HRP)-conjugated antibodies specific for mouse IgG (H+L). For isotype analysis, HRP-labelled goat anti-mouse IgG1 and IgG2a (Southern Biotechnology, Birmingham, Ala.) were used. The binding of antibodies was measured as absorbance at 405 nm after reaction of the immune complexes with ABTS substrate (Zymed, San Francisco, Calif.).

CT26.CL25 colon tumor = experiment: Subcutaneous CT26.CL25 colon tumor in BALB/c mice; type: in vivo, mouse; conditions: day 24, compared with non-CpG DNA treated mice; 1 mg/kg peritumoral
Procedure: (§3) For subcutaneous solid tumor models, 10^6 CT26.CL25 cells/mouse or 5×10^5 B16.F0 cells/mouse in 100 μl of PBS were implanted into BALB/c or C57BL/6 mice in the lower right flank. The tumor size reached to 50 to 200 mg on day 6 for CT26.CL25 and on day 8 for B16.F0 post tumor inoculation. The tumor bearing mice were then treated with peritumoral injection of IMO compounds or non-CpG DNA control at a dose of 1 mg/kg every other day for 10 times. Tumor growth was recorded with the use of calipers, by measuring the long and short diameters of the tumor. Tumor volumes were measured with a caliper and the formula (0.5×length×width^2) was applied to determine tumor growth kinetics.
The antitumor activity of IMO compounds in a murine colon carcinoma CT26.CL25 model was evaluated. BALB/c mice bearing CT26.CL25 subcutaneous solid tumors were treated with 1 mg/kg IMO compounds by peritumoral administration every other day for 10 times starting on day 6 following tumor inoculation.

CT26.WT = experiment: Peritoneal disseminated CT26.WT tumor, survival; type: in vivo, mouse; conditions: peritoneal administration, 1 mg/kg; FIG. 17B
Procedure: as §1

BALB/c mice = experiment: In vivo serum cytokine induction; set-up: species or system mouse
Procedure: To assess serum cytokine levels, BALB/c mice (n=5) were injected intraperitoneally (i.p), subcutaneously (s.c) or intramuscularly (i.m) with IMO compounds at 10 mg/kg (single dose). Sera was collected by retro-orbital bleeding at 4 hrs of IMO administration and determined IL-112 and IL-6 by sandwich ELISA. Cytokine antibodies and standards were purchased from PharMingen (San Diego, Calif.).
To evaluate the immunopharmacological effects in vivo, IMO compounds, CpG immunomers, and non-CpG oligos were administered to BALB/c mice i.p, s.c or i.m at a dose of 10 mg/kg and their serum was evaluated for IL-12 and IL-6 after 4 hrs.

4T1 tumor cells = experiment: Adoptive transfer of splenocytes, 4T1 challenge; type: in vivo, mouse; conditions: FIG. 21B
Excerpt: as §2

4T1 breast tumor = 4T1 breast tumor in BALB/c mice, combination with doxorubicin; type: in vivo, mouse; conditions: IMO 2 1 mg/kg peritumoral, doxorubicin 30 mg/kg i.p; FIG. 24A
Procedure: For the 4T1 tumor models, 5×10^5 cells/mouse in. 100 μl PBS were implanted into BALB/c mice in the lower right flank. On day 5 when the average tumor size reached 50 mm^2, the mice were given i.p injections of 30 mg/kg doxorubicin (Bedford lab, Bedford, Ohio) for three times on days 5, 6 and 7. IMO 2 (1 mg/kg) dissolved in 100 μl PBS was administrated by peritumoral injection at twice a week interval for a total of six times.

B16.F0 melanoma [4] = experiment: Subcutaneous B16.F0 melanoma in C57BL/6 mice; type: in vivo, mouse; conditions: 1 mg/kg peritumoral every other day for 10 times from day 8; FIG. 22A
Procedure: as §3
IMO 2 was further tested for its antitumor activity in mice bearing B 16.F0 murine melanoma. C57BL/6 mice bearing B16.F0 melanoma were treated with 1 mg/kg IMO 2 by peritumoral administration every other day for 10 times starting on day 8 following tumor inoculation.

B16.F0 melanoma [5] = experiment: B16.F0 melanoma in wt, IL-6 ko and IL-12 ko C57BL/6 mice; type: in vivo, mouse; conditions: FIG. 23
Excerpt: Female BALB/c (H-2^d), C57BL/6, and IL-6 and IL-12 knockout (ko) (both ko on a C57BL/6 background) mice 5-8 weeks of age, were purchased from Jackson Laboratory (Bar Harbor, Me.). CT26.WT (ATCC, Rockville, Md.) is a carcinogen-induced BALB/c undifferentiated colon carcinoma. CT26.CL25 (ATCC, Rockville, Md.) is a subclone of CT26.WT that has been transduced with Escherichia coli β-gal gene. 4T1 is a mammary adenocarcinoma cell line in BALB/c mice. B16.F0 is a C57BL/6 derived melanoma (ATCC). CT26.WT and 4T1 cells were cultured in RPMI 1640, 10% heat-inactivated fetal bovine serum (FBS, Atlas Biologicals, Fort Colins, Colo.), 2 mM L-glutamine, 100 μg/ml streptomycin, 100 U/ml penicillin (Mediatech, Va.). CT26.CL25 is maintained in the same medium plus 400 μg/ml G418 sulfate (Life Technologies, Grand Island, N.Y.). B 16.F0 cells were grown in DMEM containing 10% FBS and antibiotics.
For peritoneal disseminated tumor model, 3×10^5 CT26.WT or CT26.CL25 cells and 5×10^4 B16.F0 cells were injected i.p to BALB/c or C57BL/6 mice respectively. IMO compounds or non-CpG DNA (2.5 mg/kg) were administrated i.p. twice per week starting on day 1 for a total of 5 times. Mice were checked daily for tumor growth and for survival. Each dose group had 6 to 10 mice.

4T1 mammary carcinoma = experiment: Rechallenge of long term survivors with 4T1; type: in vivo, mouse; conditions: FIG. 20C
Excerpt: (§4) Long term survivors (n=5) of IMO compound treated mice with CT26.WT or CT26.CL25 peritoneal tumor were rechallenged i.p. or i.v. with 5×10^5 of the parental tumor cells without any further treatment. To evaluate the specificity of the IMO induced antitumor response in tumor bearing mice, these long term survivors (n=5) were also rechallenged with syngeneic, non-organ-related mammary tumor 4T1 (5×10^5). For i.v. rechallenged groups, mice were sacrificed on day 13, lungs were harvested and lung metastases were counted.

[6] = system: CT26.WT and CT26.CL25 tumors; experiment: Rechallenge of long term survivors with CT26.WT or CT26.CL25; type: in vivo, mouse
Excerpt: as §4

[7] = system: Her-2 overexpressing human breast tumors (BT474); experiment: Her-2 overexpressing human breast tumors (BT474) in nude mice, combination with Herceptin; type: in vivo, mouse; conditions: compared to the PBS control group; Herceptin 10 mg/kg i.p, IMO 1 mg/kg peritumoral, twice a week for 6 weeks; FIG. 29
[8] = Intramuscular (i.m), 10 mg/kg, 4 hrs
[9] = Intraperitoneal (i.p), 10 mg/kg, 4 hrs
[10] = Subcutaneous (s.c), 10 mg/kg, 4 hrs

## IMO 2: IMO compound of FIG. 15 (SEQ ID NO 24) containing a synthetic CpR motif, mouse-specific immunostimulatory motif (DNA TCTGACNTTCT; synthetic CpR motif, chemistry not fully specified)
[1]
  IL-6 production in vitro: lower IL-6 production
  IL-12 secretion in vitro: strong IL-12 secretion
CD69+ and CD86+ cells
  Percentage of CD69+ and CD86+ cells: significant increase in the percentage of CD69+ and CD86+cells
CT26.CL25
  Mice survival: marked increase of mice survival
[2]
  Tumor growth: significantly inhibited
CT26.CL25 tumor cells
  Protection by transferred splenocytes against CT26.CL25 challenge: protective against a lethal tumor challenge
[3]; FIG. 22B
  Total IgG1 levels: decrease or no change
[3]; FIG. 22C
  Total circulating serum IgG2a: significant increase
CT26.CL25 colon tumor
  Average tumor growth inhibition: 85%
CT26.WT
  Mice survival: marked increase of mice survival
BALB/c mice; 10 mg/kg, all three routes of administration, 4 hrs
  Serum IL-6 induction: significantly lower serum IL-6
BALB/c mice; 4 hr after administration, FIG. 25B
  Serum IL-12 secretion in mice: induced IL-12 secretion
BALB/c mice; [8]
  IL-6 (serum): 1.2 ± 0.1 ng/mL
  IL-12 (serum): 87.9 ± 3.2 ng/mL
BALB/c mice; [9]
  IL-6 (serum): 2.5 ± 0.2 ng/mL
  IL-12 (serum): 51.7 ± 0.9 ng/mL
BALB/c mice; [10]
  IL-6 (serum): 2.3 ± 0.4 ng/mL
  IL-12 (serum): 136.9 ± 17 ng/mL
4T1 tumor cells
  Protection by transferred splenocytes against 4T1 challenge: did not extend to 4T1 tumor cell challenge
4T1 breast tumor
  Inhibition of 4T1 tumor growth: strong inhibition
B16.F0 melanoma [4]
  Tumor growth inhibition: 71%
B16.F0 melanoma [5]; IL-6 ko C57BL/6 mice
  Tumor growth: significant reduction in tumor growth
B16.F0 melanoma [5]; wt C57BL/6 mice
  Tumor growth: significant reduction in tumor growth
4T1 mammary carcinoma
  Protection against 4T1 mammary carcinoma challenge: not protected
[6]; data not shown
  Rejection of pulmonary metastases after i.v. inoculation: able to reject pulmonary metastases of the same tumor
[6]; mice cleared of CT26.CL25 peritoneal tumor, FIGS. 20A and B
  Protection against i.p rechallenge: rejected i.p rechallenge with CT26.WT and CT26.CL25 tumors
[7]
  Tumor growth inhibition: 65%
